This note sets out measurements from patent US20180264134A1, “A COMPOSITION OF GOLD NANOPARTICLES HAVING ANTIMICROBIAL PEPTIDES BOUND ON THEIR SURFACE FOR USE THE TREATMENT OF WOUND HEALING OR IN THE TREATMENT OF ISCHEMIC OR VASCULAR DISEASES OR IN THE TREATMENT OF SKIN DISORDERS” (priority 2015, published 2018).

Entries after “also recorded” stand apart in the source; their conditions may differ.

The test deals with HaCaT cells. As to the kind of experiment: Scratch assay in HaCaT. The test is classed as cell-based, human. As for the experimental part: Scratch Assay in HaCaT. HaCaT cells (passage 35-40) were seeded at a density of 2×10^4 cells/well in fibronectin-coated 96-well plate in DMEM supplemented with 1% (v/v) penicillin and streptomycin and 10% (v/v) FBS. After 48 h, cells were firstly starved for 15 h in DMEM with 0.5% FBS and then incubated with LL-37 (1 μg/mL), LL-37 AUNPs and AUNPs (200 μg/mL) for 5 h at 37° C. and 5% CO2. All the chemical inhibitors for FPRL1, EGFR, ADAM17 and Purinergic receptor were added into cells 1 hour before and for all the incubation time with LL37, LL37-Au NPs or AuNPs. After treatments, cells were washed twice with PBS to remove non-internalized NPs and a scratch was created with a sterile pipet tip. The detached cells were washed twice with PBS and then plates were re-coated with fibronectin (10 μg/mL in starvation medium) for 1 hour at 37° C. At this point (t=0), the first images were taken on In Cell Microscope 2000 (GE Healthcare) (objective 2×). Then cells were washed and maintained in starvation medium up to 72 h. During this time, cell migration was monitored and more images were taken up to 72 h. Scratch areas were quantified using the AxioVision software (Carl Zeiss). Wound areas were normalized by the initial area (n=8 images). On the other hand, to test the prolonged effect of LL37-Au NPs on HaCaT migration, cells were plated in fibronectin-coated 24-well plate (2×10^5 cells/well), after 48 h cells were starved for 15 h in DMEM with 0.5% FBS and then the scratch was made with a sterile pipet tip. Only after the cells were incubated with LL-37 (1 μg/mL), LL37-Au NPs and AuNPs (15 μg/mL) in starvation medium up to 96 h. During this time, cell migration was monitored and images were taken and scratch area quantified.
In an embodiment, the NP bioactivity was carried out by scratch assay. Keratinocytes (passage 35-40) were seeded at a density of 2×10^4 cells/well in fibronectin-coated 96-well plate in DMEM supplemented with 1% (v/v) penicillin and streptomycin and 10% (v/v) FBS. After 48 h, cells were initially starved for 15 h in DMEM with 0.5% FBS, inactivated with mitomycin (5 μg/mL) for 2 h, and then incubated with LL37 (1 μg/mL), LL37-Au NPs or Au NPs (both at 200 μg/mL) for 5 h at 37° C. and 5% CO2. In case of chemical inhibition, the chemical inhibitors for FPRL1 (WRW4, Calbiochem, 10 μM), EGFR (Erlotinib HCL, OSI-744, Selleck Chemicals, 2 nM), ADAM17 (Marimastat, Sigma, 10 μM), P2X (PPADS, Sigma, 100 μM), for P2X7 (A-740003, Sigma, at a concentration of 500 nM), were added to the cells 1 h before the incubation with LL37 peptide and LL37-Au NPs and then maintained during the assay. […] After the 5 h treatment, cells were washed twice with PBS to remove non-internalized NPs and a scratch was created with a sterile pipette tip. The detached cells were washed twice with PBS and then plates were re-coated with fibronectin (10 μg/mL in starvation medium) for 1 h at 37° C. Cells were washed and maintained in starvation medium up to 72 h. Cell migration was monitored overtime by a in Cell Microscope 2000 (GE Healthcare) (objective 2×). The cells treated with LL37 peptide were cultured with starvation medium containing LL37 for the entire duration of the experiment. Scratch areas were quantified using the AxioVision software (Carl Zeiss). Wound areas were normalized by the initial area (n=6 images). In case of siRNA knock-down studies, on-target plus human ADAM17 siRNA or P2X7R siRNA (both from Dharmacon) were used to silence ADAM17 or P2X7 before performing the scratch assay. Keratinocytes were transfected with 50 nM siRNA using 0.25 μL of Lipofectamine RNAiMAX (Life Technologies) for 24 h in antibiotic-free complete medium before starting the scratch assay. […]

For the molecule `CC[C@H](C)[C@H](NC(=O)[C@H](CCCCN)NC(=O)[C@H](CCC(=O)O)NC(=O)[C@H](CCCCN)NC(=O)[C@H](CO)NC(=O)[C@H](CCCCN)NC(=O)[C@H](CCCNC(=N)N)NC(=O)[C@H](Cc1ccccc1)NC(=O)[C@H](Cc1ccccc1)NC(=O)[C@H](CC(=O)O)NC(=O)CNC(=O)[C@H](CC(C)C)NC(=O)[C@@H](N)CC(C)C)C(=O)NCC(=O)N[C@@H](CCCCN)C(=O)N[C@@H](CCC(=O)O)C(=O)N[C@@H](Cc1ccccc1)C(=O)N[C@@H](CCCCN)C(=O)N[C@@H](CCCNC(=N)N)C(=O)N[C@H](C(=O)N[C@H](C(=O)N[C@@H](CCC(N)=O)C(=O)N[C@@H](CCCNC(=N)N)C(=O)N[C@H](C(=O)N[C@@H](CCCCN)C(=O)N[C@@H](CC(=O)O)C(=O)N[C@@H](Cc1ccccc1)C(=O)N[C@@H](CC(C)C)C(=O)N[C@@H](CCCNC(=N)N)C(=O)N[C@@H](CC(N)=O)C(=O)N[C@@H](CC(C)C)C(=O)N[C@H](C(=O)N1CCC[C@H]1C(=O)N[C@@H](CCCNC(=N)N)C(=O)N[C@H](C(=O)N[C@@H](CCC(=O)O)C(=O)N[C@@H](CO)C(=O)N[C@@H](CS)C(N)=O)[C@@H](C)O)C(C)C)[C@@H](C)CC)C(C)C)[C@@H](C)CC` [LL37], the “effect of P2X7 antagonist A-740003 on migration” value (A-740003 500 nM) is “inhibited; also recorded: significant decrease”. Where the note is “Erlotinib 2 nM”, the “effect of EGFR inhibitor Erlotinib on migration” value is “decreased significantly”. The migration of keratinocytes entry (LL37 1 μg/mL, NPs 200 μg/mL, listed as LL37 peptide) was “induced the migration; also recorded: induce the migratory properties”. Besides, the “effect of ADAM inhibitor Marimastat on migration” value (Marimastat 10 μM) is on record as “significantly decreased; also recorded: significant decrease”. The “effect of purinergic antagonist PPADS on migration” value (PPADS 100 μM) was “inhibited; also recorded: significant decrease”. The “effect of FPRL-1 antagonist WRW4 on migration” value (WRW4 10 μM) is on record as “no measurable effect”. Besides, under “siRNA ADAM17”, the “effect of ADAM17 siRNA knockdown on migration” value is reported as “decreased the migratory properties; also recorded: reduced migratory effect”. The “effect of P2X7 siRNA knockdown on migration” value (siRNA P2X7) is “inhibited; also recorded: reduced migratory effect”.
